Where “and” joins values, the source holds several entries; their conditions need not be identical. Identical values can stand only once.
Experiments:
[1] = Maximum tolerated dose in mice; conditions: mouse, in vivo
[2] = In vitro metabolite identification with mouse microsomes; assay type: in vitro ADME; conditions: for % Parent remaining (t = 15 min): 5µM, 15 min at 37°C, mouse liver microsomes; for sulfonamide N-dealkylation on incubation with mouse microsomes: words
Mouse pharmacokinetics = assay type: in vivo; conditions: for Cmax: oral dose 50mg/kg; for oral exposure in mouse: words
Procedure: Test compound was dosed as a bolus solution intravenously at 3 mg free base/kg (dose volume, 5 mL/kg; dose vehicle, saline or 5% DMSO; 40% PEG400; 55% saline) to female NMRI mice (n = 3) or dosed orally by gavage as a solution at 10 and/or 50 mg free base/kg (dose volume, 5 mL/kg; dose vehicle, 5% DMSO; 95% distilled water or 5% DMSO; 40% PEG400; 55% distilled water) to female NMRI mice (n = 3/dose level). Female NMRI mice were chosen as these represent the sex and strain used for the stage 1 and stage 2 HAT efficacy models. Blood samples were taken from each mouse at 2 (IV only), 5 (IV only), 15, and 30 min, 1, 2, 4, 6, 8, and 24 (po only) hours postdose and mixed with two volumes of distilled water. After suitable sample preparation, the concentration of test compound in blood was determined by UPLC-MS/MS using a Quattro Premier XE (Waters, USA). Pharmacokinetic parameters were derived from the mean blood concentration time curve using PKsolutions software v 2.0 (Summit Research Services, USA).

T. b. brucei GVR35 = assay type: in vivo; conditions: for toxicity in infected mice in stage 2 model: dosed at the MTD b.i.d. po for 5 days, mice affected
From the text: NMRI mice used in the experiment were purchased from Harlan, UK. Mice were maintained under standard temperature/lighting conditions and given food and water ad libitum. The trypanosomes used in this study were of the cloned stabilate T. b. brucei GVR35, originally derived from trypanosomes isolated from a wildebeest in the Serengeti in 1966.[31] By 13 days postinfection, parasites entered the CNS.[32] If treatment is delayed until 21 days after infection, successful cure is therefore dependent on the ability of the compound to penetrate through the blood–brain barrier.[33] This model is widely used to evaluate the efficacy of new compounds for treatment against stage 2 HAT.[34]
Cryopreserved T. b. brucei GVR35 trypomastigotes were diluted to ∼5 × 10^4 cells/mL in 20 mM Hanks Balanced Salt Solution with glucose, and 0.2 mL of that dilution was used for infection (∼1 × 10^4 cells/mL per animal). All animals in the groups were intraperitoneally infected (ip) on day 0. After infection, parasitaemia was monitored by examination of tail blood smears. On day 21, post infection animals were randomly allocated to five mice per group. Infected animals were dosed with one of the following: diaminazene diaceturate (ip), 40 mg/kg once only as a HAT stage 1 control (early stage tyrypanocide to clear the parasites in the systemic circulation and in tissues other than CNS); Melasoprol (ip), 10 mg/kg once daily for 5 days as a positive control for HAT stage 2; […]. One group of five mice was an untreated control group. The dose solutions were prepared daily, using 5% DMSO:40% PEG400:55% Milli-Q water for compound (i.e., 40) and 10% DMSO:90% peanut oil for control drugs. To measure the response to treatment, parasitaemia was monitored twice per week until day 50. After day 50, the mice were checked only once per week until day 180 post treatment. Mice surviving to the end of experiment and blood smear aparasitaemic were considered cured.

[3] = Dose calculations for in vivo efficacy studies (brain concentration, brain free fraction); conditions: for oral dose needed to deliver stage 2 cures (Dose required): b.i.d., calculated to keep brain free concentration above T. brucei EC99
Procedure: isofluorane. A blood sample was taken by cardiac puncture into two volumes of distilled water and the brain removed. After suitable sample preparation, the concentration of 1 in blood and brain was determined by UPLC/MS/MS using a Quattro Premier XE (Waters, USA). For each rat, the concentration in brain (ng/g) was divided by the concentration in blood (ng/mL) to give a brain:blood (B:B) ratio. The mean value obtained was quoted. A higher B:B ratio in animals pre-treated with GF120918 is indicative of a Pgp substrate.
Dose calculations for in vivo efficacy studies.
Property Compound 40 Compound 46 Compound 42
Oral Dose 50mg/kg 50mg/kg 50mg/kg

T. b. brucei S427 = test: Stage 1 HAT mouse efficacy model, T. b. brucei S427; assay type: in vivo; conditions: T. b. brucei S427, 50 mg/kg b.i.d. po for 4 days
[4] = system: T. b. brucei, BSF427, VSG118; test: Cell viability assay, trypanosome; assay type: cell-based; conditions: for ~EC99: T. brucei
[5] = Intrinsic clearance (Cli), mouse liver microsomes; assay type: in vitro ADME; conditions: for Cli (mouse): mouse liver microsomes; for Cli: mouse microsomes
TbNMT = target: T1, TbNMT (Trypanosoma brucei brucei, UniProt Q388H8); test: NMT enzyme inhibition scintillation proximity assay (TbNMT); assay type: biochemical, T. brucei; conditions: mean of two or more determinations; read-out: TbNMT IC50
T1 sequence (Q388H8 1-446): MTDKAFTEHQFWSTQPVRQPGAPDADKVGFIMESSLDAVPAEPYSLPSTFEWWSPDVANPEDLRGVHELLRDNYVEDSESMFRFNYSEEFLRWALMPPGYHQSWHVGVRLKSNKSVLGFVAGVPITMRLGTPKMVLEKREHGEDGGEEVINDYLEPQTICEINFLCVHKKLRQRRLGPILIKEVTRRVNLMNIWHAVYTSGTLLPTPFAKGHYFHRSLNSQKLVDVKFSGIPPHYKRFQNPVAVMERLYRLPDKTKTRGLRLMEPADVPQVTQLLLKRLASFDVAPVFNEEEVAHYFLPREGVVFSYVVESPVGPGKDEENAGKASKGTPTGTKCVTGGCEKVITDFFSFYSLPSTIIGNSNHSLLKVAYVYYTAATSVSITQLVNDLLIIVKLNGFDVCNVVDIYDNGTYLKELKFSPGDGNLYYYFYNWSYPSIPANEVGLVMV

HsNMT = assay type: biochemical, human; conditions: for IC50: mean of two or more determinations; for S = IC50 HsNMT/EC50 T. brucei: selectivity
[6] = system: MRC5, human lung fibroblast cells; test: in vitro; assay type: cell-based
[7] = system: T. b. rhodesiense STIB900; test: Stage 1 HAT mouse efficacy model, T. b. rhodesiense STIB900; assay type: in vivo; conditions: b.i.d. po for 4 days
in vitro = assay type: cell-based, human; conditions: human; read-out: MRC-5 EC50
[8] = female, NMRI, whole blood, mouse

Row | SMILES | Cli (mouse) [5] | IC50 (TbNMT) | EC50 [4] | IC50 (HsNMT) | S = IC50 HsNMT/EC50 T. brucei (HsNMT) | EC50 [6] | also measured
1 | Cc1nn(C)c(C)c1N(C(F)F)S(=O)(=O)c1c(Cl)cc(CCCC2CCN(C)CC2)cc1Cl [compound 40, 2,6-Dichloro-N-(difluoromethyl)-4-(3-(1-methylpiperidin-4-yl)propyl)-N-(1,3,5-trimethyl-1H-pyrazol-4-yl)benzenesulfonamide] |  |  |  |  |  |  | MTD at 1 day ([1]; po): 100 mg/kg; % Parent remaining (t = 15 min) [2]: 67%; sulfonamide N-dealkylation on incubation with mouse microsomes [2]: did not undergo sulfonamide N-dealkylation; Cmax (Mouse pharmacokinetics; [8]): 661 ng/mL; oral exposure in mouse (Mouse pharmacokinetics): good oral exposure; toxicity in infected mice in stage 2 model (T. b. brucei GVR35): 1/5; efficacy in stage 2 model (mice cured) (T. b. brucei GVR35; the two 100 mg/kg extended dosing schedules (8 days; 3 x 3 days pulsed)): 1/5; efficacy in a stage 2 (CNS) mouse model of HAT (T. b. brucei GVR35; words): partial efficacy; oral dose needed to deliver stage 2 cures (Dose required) [3]: 20 mg/kg; fraction unbound ([3]; mouse, in vivo): 0.019; Conc in brain ([3]; oral dose 50mg/kg): 1031 ng/g; Free brain conc ([3]; oral dose 50mg/kg): 19.6 ng/g; Activity in stage 1 mouse model (T. b. brucei S427): fully curative; ~EC99 [4]: […]
2 | Cc1nn(C)c(C)c1N(CC(F)(F)F)[S+](=O)([O-])c1c(Cl)cc(CCCC2CCN(C)CC2)cc1Cl [compound 42] | 1.1 mL min^–1 g^–1 |  |  |  |  |  | MTD at 1 day [1]: > 200 mg/kg; Cli [5]: 1.1 mL/min/g; Cmax (Mouse pharmacokinetics; [8]): 876 ng/mL; cures in stage 2 model (T. b. brucei GVR35; T. b. brucei GVR35, 150 mg/kg b.i.d. po for 5 days): none of the mice were cured; toxicity in infected mice in stage 2 model (T. b. brucei GVR35): well tolerated; concentration at 8 h ([3]; NMRI, mouse, in vivo, oral dose 50mg/kg, read-out: Free brain conc at 8 hours post-dose): 6.2 ng/g; oral dose needed to deliver stage 2 cures (Dose required) [3]: 250 mg/kg; fraction unbound ([3]; mouse, in vivo): 0.032; Conc in brain ([3]; oral dose 50mg/kg): 569 ng/g; Free brain conc ([3]; oral dose 50mg/kg): 18.2 ng/g; Activity in stage 1 mouse model (T. b. brucei S427): fully curative; ~EC99 [4]: ~56 nM and ~31 ng/mL
3 | Cc1nn(C)c(C)c1N(C(F)F)S(=O)(=O)c1c(Cl)cc(CCCOC[C@@H]2CCCN2)cc1Cl [compound 86] |  | 2 nM | 6 nM | 110 nM | 18 | 3.3 µM | 
4 | Cc1nn(C)c(C)c1N(C(F)F)S(=O)(=O)c1c(Cl)cc(CCCCCCN(C)C(C)C)cc1Cl [compound 84] |  | 3 nM | 38 nM | 180 nM | 5 | 5.1 µM | 
5 | Cc1c(NS(=O)(=O)c2c(Cl)cc(-c3ccnc(N4CCNCC4)c3)cc2Cl)c(CC(C)C)nn1C [compound 6] |  |  |  |  |  |  | MTD ([1]; po): 20 mg/kg; stage 1 HAT minimal curative dose, T. b. rhodesiense STIB900 [7]: 6 mg/kg; AUC(0-t) (Mouse pharmacokinetics; female, NMRI, whole blood, mouse, 10 mg/kg po, read-out: AUC0–8 (converted)): 56700 ng·h/mL
6 | Cc1nn(C)c(C)c1N(C)[S+](=O)([O-])c1c(Cl)cc(CCCC2CCN(C)CC2)cc1Cl [compound 37] | 7.3 mL min^–1 g^–1 |  |  |  |  |  | Cli [5]: 7.3 mL/min/g; % Parent remaining (t = 15 min) [2]: 25%; sulfonamide N-dealkylation on incubation with mouse microsomes [2]: N-dealkylated sulfonamide as the predominant metabolite; EC50 (in vitro): 1100 nM
7 | Cc1nn(C)c(C)c1N(C(F)F)S(=O)(=O)c1c(Cl)cc(CCCN2CCN3CCC[C@@H]3C2)cc1Cl [compound 53] | 15 mL min^–1 g^–1 |  |  |  |  |  | Cli [5]: 15 mL/min/g; oral exposure in mouse (Mouse pharmacokinetics): no improvement to oral exposure
8 | Cc1nn(C)c(C)c1N(C(F)F)S(=O)(=O)c1c(Cl)cc(CCCOC[C@H]2CCCCN2)cc1Cl [compound 89] |  | 7 nM | 85 nM | 570 nM | 7 | 5 µM | 
9 | CCN(c1c(C)nn(C)c1C)S(=O)(=O)c1c(Cl)cc(CCCN2CCN(C)CC2)cc1Cl [compound 34] | 3.1 mL min^–1 g^–1 |  |  |  |  |  | Cli [5]: 3.1 mL/min/g; % Parent remaining (t = 15 min) [2]: 37%; sulfonamide N-dealkylation on incubation with mouse microsomes [2]: N-dealkylated sulfonamide as the predominant metabolite; oral exposure in mouse (Mouse pharmacokinetics): poor oral exposure
10 | Cc1nn(C)c(C)c1N(C(F)F)S(=O)(=O)c1c(Cl)cc(CCCOC2CC3CCC(C2)N3C)cc1Cl (stereo not drawn) [compound 71] |  | 2 nM | 10 nM | 62 nM | 6 | 1.5 µM | 
11 | Cc1nn(C)c(C)c1N(C(F)F)S(=O)(=O)c1c(Cl)cc(CCCOC2CCC(N(C)C)CC2)cc1Cl (stereo not drawn) [compound 76] |  | 2 nM | 3 nM | 5 nM | 2 | 0.57 µM | 
12 | Cc1nn(C)c(C)c1N(C(F)F)S(=O)(=O)c1c(Cl)cc(CCCOC2CC(C)(C)N(C)C(C)(C)C2)cc1Cl [compound 75] |  | 10 nM | 64 nM | 1700 nM | 27 | 5.3 µM | 
13 | Cc1nn(C)c(C)c1N(C(F)F)S(=O)(=O)c1c(Cl)cc(CCCOC[C@@H]2CCCCN2)cc1Cl [compound 88] |  | 7 nM | 87 nM | 840 nM | 10 | 5.3 µM | 
14 | CCN(c1c(C)nn(C)c1C)[S+](=O)([O-])c1c(Cl)cc(CCCC2CCN(C)CC2)cc1Cl [compound 39] | 12 mL min^–1 g^–1 |  |  |  |  |  | % Parent remaining (t = 15 min) [2]: 52%; sulfonamide N-dealkylation on incubation with mouse microsomes [2]: N-dealkylated sulfonamide as the predominant metabolite; EC50 (in vitro): 2200 nM
15 | CCN(CC)CCCCCCc1cc(Cl)c(S(=O)(=O)N(c2c(C)nn(C)c2C)C(F)F)c(Cl)c1 [compound 81] |  | 3 nM | 14 nM | 42 nM | 3 | 2.9 µM | 
